Experimental data: patent publication US7064207B2, “Androgen receptor antagonists” (Warner Lambert Company LLC, priority 2003, dated 2006)

Target: T1, androgen receptor (Homo sapiens, UniProt P10275)
T1 sequence (P10275 1-920 Q868H): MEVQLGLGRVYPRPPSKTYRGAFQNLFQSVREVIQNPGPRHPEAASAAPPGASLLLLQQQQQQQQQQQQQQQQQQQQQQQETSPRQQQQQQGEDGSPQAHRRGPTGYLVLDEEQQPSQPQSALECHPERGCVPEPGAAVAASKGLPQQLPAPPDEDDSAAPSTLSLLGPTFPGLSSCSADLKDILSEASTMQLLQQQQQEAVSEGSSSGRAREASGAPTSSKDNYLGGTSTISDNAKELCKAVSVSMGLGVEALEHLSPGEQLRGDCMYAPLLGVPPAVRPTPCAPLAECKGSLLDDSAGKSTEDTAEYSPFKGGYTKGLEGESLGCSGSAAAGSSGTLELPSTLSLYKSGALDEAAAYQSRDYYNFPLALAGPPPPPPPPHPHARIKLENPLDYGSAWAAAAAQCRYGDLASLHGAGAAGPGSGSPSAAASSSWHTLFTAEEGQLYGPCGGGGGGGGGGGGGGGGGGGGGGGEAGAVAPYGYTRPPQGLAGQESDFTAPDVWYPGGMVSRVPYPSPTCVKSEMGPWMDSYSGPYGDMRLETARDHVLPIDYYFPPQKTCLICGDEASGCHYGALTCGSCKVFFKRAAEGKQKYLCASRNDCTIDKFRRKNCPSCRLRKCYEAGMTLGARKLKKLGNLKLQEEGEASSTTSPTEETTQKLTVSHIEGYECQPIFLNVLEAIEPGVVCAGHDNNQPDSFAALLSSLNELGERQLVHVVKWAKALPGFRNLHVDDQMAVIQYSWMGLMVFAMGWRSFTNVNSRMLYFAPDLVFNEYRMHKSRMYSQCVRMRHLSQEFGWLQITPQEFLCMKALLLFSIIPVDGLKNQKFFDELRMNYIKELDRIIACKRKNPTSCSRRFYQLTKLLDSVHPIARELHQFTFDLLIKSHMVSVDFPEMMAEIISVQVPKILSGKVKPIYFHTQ
Experiment: AR Antagonist Cell Assay (MMTV-luciferase reporter, inhibition of DHT induction)
Format: cell-based
Settings: MDA-MB453-MMTV clone 54-19 cells, 100 pM DHT, 17 hr, luciferase; read-out: Cell IC50
Protocol: The compounds ability to antagonize the effects of androgen on the androgen receptor were determined in the protocol described immediately below.
Experimental Procedure for AR Antagonist Cell Assay
Cell line: MDA-MB453-MMTV clone 54–19. This cell line is a stable transfected cell line with MDA-MB453 cell background (human breast tumor cell expressing high level of androgen receptor). A MMTV minimal promoter containing ARE was first cloned in front of a firefly luciferase reporter gene. Then the cascade was cloned into transfection vector pUV120puro. Electroporation method was used for transfecting MDA-MB-453 cell. Puromycin resistant stable cell line was selected. Cell Culture Media and Reagents:
Culture medium: DMEM (high glucose, Gibco cat #: 11960-044), 10% FBS, and 1% L-glutamine
Plating medium: DMEM (phenol red free), 10% charcoal treated HyClone serum, 1% L-glutamine
Assay medium: DMEM (phenol red free), 1% charcoal treated HyClone serum, 1% L-glutamine, and 1% penicillin/streptomycin
3× luciferase buffer: 2% beta-mercaptoethanol, 0.6% ATP, 0.0135% luciferine in cell lysis buffer
• 1. Cells are maintained in culture medium, splitting cells when they reach 80–90% confluence • 2. To test compounds, 10,000 cells/well are plated to opaque 96 cell culture plate in 100 ul/well plating medium, culture for overnight at 37° C. in cell culture incubator • 3. Carefully remove plating medium, then add 80 ul/well of pre-warmed assay medium, add 10 ul/well testing compound (final concentration at 10 uM or 1 uM), incubate at 37° C. for 30 minutes • 4. Add 10 ul/well freshly prepared DHT (final concentration at 100 pM) to each well, incubate at 37° C. for 17 hr (overnight) • 5. Add 50 ul/well 3× luciferase buffer, incubate at room temperature for 5 minutes, then count on Luminometer The fold induction over background by 100 pM DHT in the absence of testing compounds is standardized as 100% and experimental result is expressed as percentage of inhibition by testing compounds.

| SMILES | IC50 |
| --- | --- |
| O=c1cc(C(F)(F)F)c2cc(S(=O)(=O)N3CCCC3)ccc2[nH]1 [Example 33, 6-(Pyrrolidine-1-sulfonyl)-4-trifluoromethyl-1H-quinolin-2-one] | 310 nM |
| O=c1cc(C(F)(F)F)c2cc(S(=O)(=O)N3CCCCCC3)ccc2[nH]1 [Example 36, 6-(Azepane-1-sulfonyl)-4-trifluoromethyl-1H-quinolin-2-one] | 180 nM |
| CC1CCCCN1S(=O)(=O)c1ccc2[nH]c(=O)cc(C(F)(F)F)c2c1 (centres unmarked) [Example 37, 6-(2-Methylpiperidine-1-sulfonyl)-4-trifluoromethyl-1H-quinolin-2-one] | 1550 nM |
| O=c1cc(C(F)(F)F)c2cc(S(=O)(=O)N3CCN(C4CCCC4)CC3)ccc2[nH]1 [Example 38, 6-(4-Cyclopentylpiperazine-1-sulfonyl)-4-trifluoromethyl-1H-quinolin-2-one] | > 10000 nM |
| O=c1cc(C(F)(F)F)c2cc(S(=O)(=O)N3CCC3)ccc2[nH]1 [Example 39, 6-(Azetidine-1-sulfonyl)-4-trifluoromethyl-1H-quinolin-2-one] | 430 nM |
| O=c1cc(C(F)(F)F)c2cc(S(=O)(=O)N3CCN(c4ccccn4)CC3)ccc2[nH]1 [Example 40, 6-(4-Pyridin-2-ylpiperazine-1-sulfonyl)-4-trifluoromethyl-1H-quinolin-2-one] | > 10000 nM |
| O=c1cc(C(F)(F)F)c2cc(S(=O)(=O)N3CCCC3CN3CCCC3)ccc2[nH]1 (centres unmarked) [Example 41, 6-(2-Pyrrolidin-1-ylmethyl-pyrrolidine-1-sulfonyl)-4-trifluoromethyl-1H-quinolin-2-one] | 3600 nM |
| O=c1cc(C(F)(F)F)c2cc(S(=O)(=O)N3CCN(c4cnccn4)CC3)ccc2[nH]1 [Example 42, 6-(2,3,5,6-Tetrahydro-[1,2′]bipyrazinyl-4-sulfonyl)-4-trifluoromethyl-1H-quinolin-2-one] | > 10000 nM |
